Results reported in ChEMBL document CHEMBL1201862, “PubChem BioAssay data set” (2004).
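Where inhibition never reached the appropriate level, the endpoint shown equals the highest concentration tested. Otherwise, values were interpolated linearly from a five-concentration, 48-hour dose response in 96-well plates. GI50 is the concentration that inhibits growth by half.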 Activity calls are given as the source filed them. Cut-off read from the data, not from the text of the source: active = GI50 up to about 1.1 µM and inactive = higher.

Key:
Experiment in all cases: growth of human tumour cells (NCI), 48 h
[1] = system: 786-0
[2] = system: A498
[3] = system: A549
[4] = system: ACHN
[5] = system: BT-549
[6] = system: CAKI-1
[7] = system: CCRF-CEM
[8] = system: COLO 205
[9] = system: DU-145
[10] = system: EKVX
[11] = system: HCC 2998
[12] = system: HCT-116
[13] = system: HCT-15
[14] = system: HOP-62
[15] = system: HOP-92
[16] = system: HT-29
[17] = system: Hs-578T
[18] = system: IGROV-1
[19] = system: K562
[20] = system: KM12
[21] = system: LOX IMVI
[22] = system: M14
[23] = system: MCF7
[24] = system: MDA-MB-231
[25] = system: MDA-MB-435
[26] = system: MDA-N
[27] = system: MOLT-4
[28] = system: Malme-3M
[29] = system: NCI-H226
[30] = system: NCI-H23
[31] = system: NCI-H460
[32] = system: NCI-H522
[33] = system: NCI/ADR-RES
[34] = system: OVCAR-3
[35] = system: OVCAR-4
[36] = system: OVCAR-5
[37] = system: OVCAR-8
[38] = system: PC-3
[39] = system: RPMI-8226
[40] = system: RXF 393
[41] = system: SF-268
[42] = system: SF-295
[43] = system: SF-539
[44] = system: SK-MEL-28
[45] = system: SK-MEL-2
[46] = system: SK-MEL-5
[47] = system: SK-OV-3
[48] = system: SN12C
[49] = system: SNB-19
[50] = system: SR
[51] = system: SW-620
[52] = system: T47D
[53] = system: TK-10
[54] = system: U-251
[55] = system: UACC-257
[56] = system: UACC-62
[57] = system: UO-31
[58] = system: HL-60

COc1ccc(/C=C2\CN(C)CC3=C2OC(N)=C(C#N)C3c2ccc(OC)cc2)cc1 (centres undefined)
GI50 [1]: 30.5 µM (inactive)
GI50 [2]: 35.4 µM (inactive)
GI50 [3]: 23 µM (inactive)
GI50 [4]: 29.6 µM (inactive)
GI50 [5]: > 100 µM (inactive)
GI50 [6]: 69.7 µM (inactive)
GI50 [7]: 7.57 µM (inactive)
GI50 [8]: > 52.1 µM (inactive)
GI50 [9]: > 76.6 µM (inactive)
GI50 [10]: 43.4 µM (inactive)
GI50 [11]: 23.8 µM (inactive)
GI50 [12]: 24.3 µM (inactive)
GI50 [13]: 55.6 µM
GI50 [14]: > 77.4 µM (inactive)
GI50 [15]: 4.66 µM (inactive)
GI50 [16]: > 56.8 µM (inactive)
GI50 [17]: 88.1 µM (inactive)
GI50 [18]: 15.9 µM (inactive)
GI50 [19]: 33.6 µM (inactive)
GI50 [20]: > 56.5 µM (inactive)
GI50 [21]: 42.7 µM (inactive)
GI50 [22]: 97.1 µM (inactive)
GI50 [23]: 19.5 µM (inactive)
GI50 [24]: 42.4 µM (inactive)
GI50 [25]: 17.7 µM (inactive)
GI50 [26]: 21.8 µM (inactive)
GI50 [27]: 5.81 µM (inactive)
GI50 [28]: 14.3 µM (inactive)
GI50 [29]: > 100 µM (inactive)
GI50 [30]: > 68.2 µM (inactive)
GI50 [31]: 24.9 µM (inactive)
GI50 [32]: 14.5 µM (inactive)
GI50 [33]: 51.9 µM (inactive)
GI50 [34]: 21.6 µM (inactive)
GI50 [35]: 21.6 µM (inactive)
GI50 [36]: > 100 µM (inactive)
GI50 [37]: 19.9 µM (inactive)
GI50 [38]: > 25.8 µM (inactive)
GI50 [39]: 9.82 µM (inactive)
GI50 [40]: 20.7 µM (inactive)
GI50 [41]: 48.6 µM (inactive)
GI50 [42]: 57.5 µM (inactive)
GI50 [43]: > 100 µM (inactive)
GI50 [44]: > 100 µM (inactive)
GI50 [45]: > 45.9 µM (inactive)
GI50 [46]: > 62.1 µM (inactive)
GI50 [47]: 5.64 µM (inactive)
GI50 [48]: 35.4 µM (inactive)
GI50 [49]: > 86.7 µM (inactive)
GI50 [50]: 15.2 µM (inactive)
GI50 [51]: > 94.2 µM (inactive)
GI50 [52]: 13.6 µM (inactive)
GI50 [53]: > 84.5 µM (inactive)
GI50 [54]: 38 µM (inactive)
GI50 [55]: 50.5 µM (inactive)
GI50 [56]: > 100 µM (inactive)
GI50 [57]: > 50.5 µM (inactive)

Cc1ccc(C(=O)/C=C2\Nc3ccccc3SC2=O)c(C)c1
GI50 [1]: 26.2 µM (inactive)
GI50 [2]: > 100 µM (inactive)
GI50 [3]: 53.3 µM (inactive)
GI50 [4]: 28.6 µM (inactive)
GI50 [5]: 6.9 µM (inactive)
GI50 [6]: 37.2 µM (inactive)
GI50 [7]: 36.3 µM (inactive)
GI50 [8]: 53.1 µM (inactive)
GI50 [9]: 75.7 µM (inactive)
GI50 [10]: 54.3 µM (inactive)
GI50 [11]: 59.3 µM (inactive)
GI50 [12]: 38 µM (inactive)
GI50 [13]: 20.8 µM
GI50 [58]: 26.9 µM (inactive)
GI50 [14]: 32.9 µM (inactive)
GI50 [15]: 23.4 µM (inactive)
GI50 [16]: 45.6 µM (inactive)
GI50 [17]: 32.6 µM (inactive)
GI50 [18]: 29.8 µM (inactive)
GI50 [19]: 41.3 µM (inactive)
GI50 [20]: 46.8 µM (inactive)
GI50 [21]: 37.4 µM (inactive)
GI50 [22]: 62.1 µM (inactive)
GI50 [23]: 31 µM (inactive)
GI50 [24]: > 100 µM (inactive)
GI50 [25]: 56.2 µM (inactive)
GI50 [26]: 62.2 µM (inactive)
GI50 [27]: 37.7 µM (inactive)
GI50 [28]: 84.3 µM (inactive)
GI50 [29]: 30.7 µM (inactive)
GI50 [30]: 36.9 µM (inactive)
GI50 [31]: 28.6 µM (inactive)
GI50 [32]: 26.9 µM (inactive)
GI50 [33]: 42.3 µM (inactive)
GI50 [34]: 34.1 µM (inactive)
GI50 [35]: 26.5 µM (inactive)
GI50 [36]: > 100 µM (inactive)
GI50 [37]: 35.6 µM (inactive)
GI50 [38]: 47.9 µM (inactive)
GI50 [39]: 28.5 µM (inactive)
GI50 [40]: < 0.01 µM (active)
GI50 [41]: 25.1 µM (inactive)
GI50 [42]: 46.5 µM (inactive)
GI50 [43]: 43 µM (inactive)
GI50 [44]: 51.1 µM (inactive)
GI50 [45]: 42.1 µM (inactive)
GI50 [46]: 38.5 µM (inactive)
GI50 [47]: 43.9 µM (inactive)
GI50 [48]: 40.1 µM (inactive)
GI50 [49]: 45.3 µM (inactive)
GI50 [50]: 28.3 µM (inactive)
GI50 [52]: 61.9 µM (inactive)
GI50 [53]: > 100 µM (inactive)
GI50 [54]: 44.9 µM (inactive)
GI50 [55]: 42 µM (inactive)
GI50 [56]: 32.7 µM (inactive)
GI50 [57]: 32.5 µM (inactive)
